Measurements as given in the NIST ThermoML archive (doi:10.1021/acs.jced.7b00654).
± gives the expanded uncertainty stated by the source.

Experiments:
[1] = 96.7 kPa, Vibrating tube method
[2] = xn = mol fraction of the nth substance listed; settings: 96.7 kPa, Liquid, Vibrating tube method

| SMILES | mass density ([2]; 303.15 K, x2 = 0) | mass density ([2]; 308.15 K, x2 = 0) | mass density ([2]; 313.15 K, x2 = 0) | mass density ([2]; 318.15 K, x2 = 0) | mass density ([2]; 323.15 K, x2 = 0) | mass density ([2]; 328.15 K, x2 = 0) | mass density ([2]; 333.15 K, x2 = 0) | mass density ([2]; 338.15 K, x2 = 0) | mass density ([2]; 343.15 K, x2 = 0) | mass density ([2]; 348.15 K, x2 = 0) | mass density ([2]; 353.15 K, x2 = 0) | further results |
| --- | --- | --- | --- | --- | --- | --- | --- | --- | --- | --- | --- | --- |
| CCCCn1cc[n+](C)c1.[Cl-] [1-butyl-3-methylimidazolium chloride] | – | – | – | – | – | – | – | – | – | – | – | mass density ([1]; 303.15 K, Metastable liquid): 1079.41 ± 2.3 kg/m3; mass density ([1]; 308.15 K, Metastable liquid): 1076.58 ± 2.3 kg/m3; mass density ([1]; 313.15 K, Metastable liquid): 1073.78 ± 2.3 kg/m3; mass density ([1]; 318.15 K, Metastable liquid): 1070.99 ± 2.3 kg/m3; mass density ([1]; 323.15 K, Metastable liquid): 1068.19 ± 2.3 kg/m3; mass density ([1]; 328.15 K, Metastable liquid): 1065.36 ± 2.3 kg/m3; mass density ([1]; 333.15 K, Metastable liquid): 1062.6 ± 2.3 kg/m3; mass density ([1]; 338.15 K, Metastable liquid): 1059.87 ± 2.3 kg/m3; mass density ([1]; 343.15 K, Liquid): 1057.15 ± 2.3 kg/m3; mass density ([1]; 348.15 K, Liquid): 1054.42 ± 2.3 kg/m3; mass density ([1]; 353.15 K, Liquid): 1051.69 ± 2.3 kg/m3 |
| CCCCn1cc[n+](C)c1.[Cl-] [1-butyl-3-methylimidazolium chloride] + c1ccncc1 | – | – | – | – | – | – | – | – | – | – | – | mass density ([2]; 303.15 K, x1 = 1): 1079.41 ± 2.3 kg/m3; mass density ([2]; 308.15 K, x1 = 1): 1076.58 ± 2.3 kg/m3; mass density ([2]; 313.15 K, x1 = 1): 1073.78 ± 2.3 kg/m3; mass density ([2]; 318.15 K, x1 = 1): 1070.99 ± 2.3 kg/m3; mass density ([2]; 323.15 K, x1 = 1): 1068.19 ± 2.3 kg/m3; mass density ([2]; 328.15 K, x1 = 1): 1065.36 ± 2.3 kg/m3; mass density ([2]; 333.15 K, x1 = 1): 1062.6 ± 2.3 kg/m3; mass density ([2]; 338.15 K, x1 = 1): 1059.87 ± 2.3 kg/m3; mass density ([2]; 343.15 K, x1 = 1): 1057.15 ± 2.3 kg/m3; mass density ([2]; 348.15 K, x1 = 1): 1054.42 ± 2.3 kg/m3; mass density ([2]; 353.15 K, x1 = 1): 1051.69 ± 2.3 kg/m3 |
| CC(=O)N(C)C [N,N-dimethylethanamide] + CCCCn1cc[n+](C)c1.[Cl-] | 931.85 ± 2 kg/m3 | 927.26 ± 2 kg/m3 | 922.66 ± 2 kg/m3 | 918.06 ± 2 kg/m3 | 913.44 ± 1.9 kg/m3 | 908.81 ± 1.9 kg/m3 | 904.16 ± 1.9 kg/m3 | 899.53 ± 1.9 kg/m3 | 894.87 ± 1.9 kg/m3 | 890.19 ± 1.9 kg/m3 | 885.51 ± 1.9 kg/m3 | – |
| C[S+](C)[O-] [dimethyl sulfoxide] + CCCCn1cc[n+](C)c1.[Cl-] | 1090.29 ± 2.2 kg/m3 | 1085.28 ± 2.2 kg/m3 | 1080.3 ± 2.2 kg/m3 | 1075.31 ± 2.2 kg/m3 | 1070.32 ± 2.2 kg/m3 | 1065.33 ± 2.1 kg/m3 | 1060.34 ± 2.1 kg/m3 | 1055.34 ± 2.1 kg/m3 | 1050.35 ± 2.1 kg/m3 | 1045.34 ± 2.1 kg/m3 | 1040.33 ± 2.1 kg/m3 | – |
| CN(C)C=O [dimethylformamide] + CCCCn1cc[n+](C)c1.[Cl-] | 939.18 ± 1.9 kg/m3 | 934.41 ± 1.9 kg/m3 | 929.64 ± 1.9 kg/m3 | 924.86 ± 1.9 kg/m3 | 920.07 ± 1.9 kg/m3 | 915.26 ± 1.8 kg/m3 | 910.44 ± 1.8 kg/m3 | 905.6 ± 1.8 kg/m3 | 900.74 ± 1.8 kg/m3 | 895.87 ± 1.8 kg/m3 | 890.98 ± 1.8 kg/m3 | – |
